These results are taken from ChEMBL document CHEMBL1201862, “PubChem BioAssay data set” (2004).

Test in all cases: inhibition of tumour cell growth, NCI panel, 48 h
The test system of experiment [1] is A498.
The test system of experiment [2] is RPMI-8226.
For experiment [3], the system named is OVCAR-8.
The test system of experiment [4] is HOP-62.
Experiment [5] deals with U-251.
The test system of experiment [6] is COLO 205.
In experiment [7] the test system is SK-OV-3.
Experiment [8] concerns OVCAR-3.
Experiment [9] deals with K562.
For experiment [10], the system named is 786-0.
Experiment [11] deals with SNB-19.
Experiment [12] concerns TK-10.
The test system of experiment [13] is NCI-H460.
The test system of experiment [14] is SW-620.
Experiment [15] has as its system SNB-75.
Experiment [16] concerns NCI-H226.
Experiment [17] has as its system UACC-62.
Experiment [18] concerns LOX IMVI.
Experiment [19] deals with RXF 393.

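Cells were grown in 96-well plates and exposed to each compound for 48 hours at five concentrations; endpoints were interpolated linearly between bracketing concentrations, or set to the highest concentration if not reached. GI50 is the concentration that inhibits growth by half.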 Active and inactive are the calls of the source. Cut-off read from the data, not from the text of the source: active = GI50 up to about 1.1 µM and inactive = higher.

For the compound `O=C(/C=C/c1ccccc1Cl)c1ccccc1Cl`, the GI50 in experiment [1] was 49.1 µM (inactive); in experiment [2] it was 16 µM (inactive); in experiment [3], 17.3 µM (inactive); in [4], 47.8 µM (inactive); in experiment [5], 16.3 µM (inactive); in experiment [6] it was 21.4 µM (inactive). The GI50 in experiment [7] was 72.6 µM (inactive); in experiment [8] it was 18.9 µM (inactive); in experiment [9] it was 21 µM (inactive); in [10], 15.2 µM (inactive); in experiment [11] it was 15.7 µM (inactive); in experiment [12], 37.5 µM (inactive). Besides, the GI50 in experiment [13] was 19.2 µM (inactive); in experiment [14], 12.6 µM (inactive); in experiment [15] it was 30.3 µM (inactive); in experiment [16], 45.9 µM (inactive); in experiment [17] it was 16.7 µM (inactive).
Consider `COc1ccc(CNc2cnc3cc(N)ccc3n2)cc1`, for which the GI50 in experiment [2] was 42.8 µM (inactive); in experiment [3], > 100 µM (inactive); in experiment [4], > 100 µM (inactive); in [18], > 100 µM (inactive); in [5], > 100 µM (inactive); in experiment [6], > 100 µM (inactive). Besides, the GI50 in experiment [8] is > 100 µM (inactive); in experiment [9] it was > 100 µM (inactive); in experiment [10] it was > 100 µM (inactive); in experiment [11], 69 µM (inactive); in experiment [12], > 100 µM (inactive); in [13], > 100 µM (inactive). Moreover, the GI50 in experiment [14] was > 100 µM (inactive); in [15], 52.6 µM (inactive); in experiment [16] it was 80.7 µM (inactive); in experiment [19] it was > 100 µM (inactive); in experiment [17] it was > 100 µM (inactive).
Take `CC(C)(C)c1cc(C(=O)O)c2c(c1)C(=O)OC2(c1ccccc1)c1ccccc1C(=O)O` (stereo not given): the GI50 in experiment [3] was > 100 µM (inactive); in experiment [4], > 100 µM (inactive); in experiment [18], > 100 µM (inactive); in [5], 0.0448 µM (active); in experiment [6], 41.1 µM (inactive); in [7] it was 0.0611 µM (active). In addition, the GI50 in [8], in experiment [9], in experiment [10], in experiment [11], in experiment [12] and in experiment [13] was > 100 µM (inactive) throughout. Besides, the GI50 was > 100 µM (inactive) in experiment [14]; 90.4 µM (inactive) in experiment [15]; 23.9 µM (inactive) in experiment [16]; > 100 µM (inactive) in experiment [19]; > 100 µM (inactive) in experiment [17].
As to `c1ccc(C2=NN3CN(N2)c2ccccc2OCCCOc2ccccc23)cc1`, the GI50 was 19.1 µM (inactive) in experiment [2]; > 100 µM (inactive) in [3]; > 100 µM (inactive) in [4]; > 100 µM (inactive) in experiment [18]; > 100 µM (inactive) in experiment [5]; > 100 µM (inactive) in experiment [6]. For the same compound, the GI50 in experiment [8], in experiment [9], in [10], in [11], in experiment [12] and in [13] was > 100 µM (inactive) throughout. Besides, the GI50 was > 100 µM (inactive) in experiment [14]; 88.5 µM (inactive) in [15]; > 100 µM (inactive) in experiment [16]; > 100 µM (inactive) in [19]; > 100 µM (inactive) in experiment [17].
For `O=C(OCC1CO1)c1cccs1` (stereo not given), the GI50 in [2], in [3], in experiment [4], in [18], in experiment [6] and in experiment [7] was > 100 µM (inactive) each time. Also, the GI50 in [8], in experiment [9], in [10], in experiment [11], in experiment [12] and in experiment [13] was > 100 µM (inactive) in each case. Moreover, the GI50 was > 100 µM (inactive) in [14], 37 µM (inactive) in experiment [15], > 100 µM (inactive) in experiment [19] and > 100 µM (inactive) in experiment [17].
For `NC1=C(NC(=O)Cc2ccc(F)cc2)C(=O)c2ccccc2C1=O`, the GI50 in experiment [2] is > 100 µM (inactive); in experiment [3] it was 33.1 µM (inactive); in experiment [4], > 52.4 µM (inactive); in experiment [18], 14.4 µM (inactive); in experiment [5], 13.9 µM (inactive); in [6] it was 68.2 µM (inactive). The GI50 in [7] is 19.4 µM (inactive); in experiment [8] it was 26.4 µM (inactive); in experiment [9], 58.7 µM (inactive); in [10], 37.7 µM (inactive); in experiment [11] it was 23.1 µM (inactive); in [12], 30.9 µM (inactive). Moreover, the GI50 is > 82.2 µM (inactive) in [13]; > 100 µM (inactive) in [14]; 29.2 µM (inactive) in experiment [15]; > 50.4 µM (inactive) in [16]; 24.6 µM (inactive) in experiment [19]; 36.4 µM (inactive) in experiment [17].
For the compound `Cn1cnc([N+](=O)[O-])c1Sc1nc2ccccc2s1`, the GI50 in [2] is 12.5 µM (inactive); in experiment [3], 4.07 µM (inactive); in [4], 25.2 µM (inactive); in experiment [18], 15.3 µM (inactive); in experiment [5], 11.7 µM (inactive); in experiment [6] it was 3.33 µM (inactive). Also, the GI50 in experiment [7] was 15.5 µM (inactive); in experiment [8] it was 3.7 µM (inactive); in experiment [10] it was 11.8 µM (inactive); in experiment [11], 14.5 µM (inactive); in experiment [13], 12 µM (inactive); in [14] it was 4 µM (inactive). Further, the GI50 in experiment [15] was 15.6 µM (inactive); in experiment [16], 9.84 µM (inactive); in experiment [19] it was 2.15 µM (inactive); in experiment [17] it was 11.9 µM (inactive).
On to `O=[N+]([O-])c1c(/C=N/Nc2ccccc2)oc(-c2ccc3c(c2)OCO3)c1-c1ccc2c(c1)OCO2`, for which the GI50 in [2] was 5.78 µM (inactive); in [3], 5.56 µM (inactive); in experiment [4] it was 3.9 µM (inactive); in experiment [18] it was 0.74 µM (active); in [6] it was 18.2 µM (inactive); in [7], 30.5 µM (inactive). Besides, the GI50 is 5.77 µM (inactive) in experiment [8]; 3.06 µM (inactive) in [9]; 19.2 µM (inactive) in experiment [10]; 70.3 µM (inactive) in experiment [11]; 19 µM (inactive) in [12]; 11.1 µM (inactive) in experiment [14]. Further, the GI50 is 23.4 µM (inactive) in [15], > 100 µM (inactive) in [16], 36.5 µM (inactive) in experiment [19] and 3.19 µM (inactive) in experiment [17].
With `COC(=O)C1Cc2c([nH]c3ccccc23)C(c2ccccc2O)N1` (stereo not given), the GI50 in experiment [1] was 21.3 µM (inactive); in [3], 68.1 µM (inactive); in experiment [18] it was 60.8 µM (inactive); in experiment [5], > 100 µM (inactive); in [6] it was 35.3 µM (inactive); in experiment [7], > 100 µM (inactive). Moreover, the GI50 in experiment [8] is 49.7 µM (inactive); in experiment [9] it was 50 µM (inactive); in experiment [10], 69.8 µM (inactive); in experiment [11], > 100 µM (inactive); in experiment [12] it was 52 µM (inactive); in [13], 18.5 µM (inactive). For the same compound, the GI50 in [14] is > 100 µM (inactive); in [15] it was 88.1 µM (inactive); in experiment [16], > 100 µM (inactive); in experiment [17], 35.4 µM (inactive).
